Reference: ChEMBL document CHEMBL5653615 (J Biol Chem, 2013)

Tests used:
[1] = biological target: Tyrosine-protein kinase receptor UFO (Homo sapiens) (UniProt P30530); assay: Inhibition of human AXL at 18.6 nM by HotSpot assay relative to control
[2] = biological target: Casein kinase I isoform epsilon (Homo sapiens) (UniProt P49674); assay: Inhibition of human CK1epsilon at 18.6 nM by HotSpot assay relative to control
[3] = biological target: MAP kinase-activated protein kinase 3 (Homo sapiens) (UniProt Q16644); assay: Inhibition of human MAPKAPK3 at 18.6 nM by HotSpot assay relative to control
[4] = biological target: Calcium/calmodulin-dependent protein kinase kinase 2 (Homo sapiens) (UniProt Q96RR4); assay: Inhibition of human CAMKK2 at 18.6 nM by HotSpot assay relative to control
Chain of Calcium/calmodulin-dependent protein kinase kinase 2 (Homo sapiens) (Q96RR4 2-588 limits assumed): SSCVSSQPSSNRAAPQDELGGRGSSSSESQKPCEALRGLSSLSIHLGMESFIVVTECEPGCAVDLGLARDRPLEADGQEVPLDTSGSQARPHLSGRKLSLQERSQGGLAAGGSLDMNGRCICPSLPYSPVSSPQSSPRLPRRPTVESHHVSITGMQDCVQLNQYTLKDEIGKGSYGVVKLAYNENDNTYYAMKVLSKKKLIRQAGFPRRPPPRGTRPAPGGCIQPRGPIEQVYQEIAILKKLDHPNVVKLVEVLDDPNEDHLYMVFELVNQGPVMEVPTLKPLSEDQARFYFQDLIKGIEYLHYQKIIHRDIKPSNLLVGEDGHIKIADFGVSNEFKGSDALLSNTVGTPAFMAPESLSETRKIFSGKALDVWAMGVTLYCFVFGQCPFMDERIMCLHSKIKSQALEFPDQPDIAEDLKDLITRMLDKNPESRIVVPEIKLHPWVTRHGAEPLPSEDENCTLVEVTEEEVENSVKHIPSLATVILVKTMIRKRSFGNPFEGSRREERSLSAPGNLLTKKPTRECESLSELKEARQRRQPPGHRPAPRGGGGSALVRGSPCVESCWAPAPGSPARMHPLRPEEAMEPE

[5] = biological target: Tyrosine-protein kinase Lyn (Homo sapiens) (UniProt P07948); assay: Inhibition of human LYN at 18.6 nM by HotSpot assay relative to control
Chain of Tyrosine-protein kinase Lyn (Homo sapiens) (P07948 2-512 limits assumed): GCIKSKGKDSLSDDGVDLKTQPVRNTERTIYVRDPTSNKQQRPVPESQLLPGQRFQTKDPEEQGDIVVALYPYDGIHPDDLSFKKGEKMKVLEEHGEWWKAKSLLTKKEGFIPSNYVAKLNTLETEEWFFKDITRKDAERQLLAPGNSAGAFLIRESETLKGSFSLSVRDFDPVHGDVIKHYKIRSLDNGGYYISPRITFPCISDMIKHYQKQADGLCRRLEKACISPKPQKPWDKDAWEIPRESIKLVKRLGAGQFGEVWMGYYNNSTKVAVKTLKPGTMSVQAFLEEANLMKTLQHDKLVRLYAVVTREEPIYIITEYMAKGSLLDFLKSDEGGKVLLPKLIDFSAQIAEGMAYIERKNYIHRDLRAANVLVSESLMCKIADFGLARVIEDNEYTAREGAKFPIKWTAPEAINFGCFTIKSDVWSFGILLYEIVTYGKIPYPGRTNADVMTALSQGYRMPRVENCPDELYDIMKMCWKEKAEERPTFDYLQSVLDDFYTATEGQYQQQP

[6] = biological target: Dual specificity tyrosine-phosphorylation-regulated kinase 1A (Homo sapiens) (UniProt Q13627); assay: Inhibition of human DYRK1 at 18.6 nM by HotSpot assay relative to control
[7] = biological target: Ribosomal protein S6 kinase beta-2 (Homo sapiens) (UniProt Q9UBS0); assay: Inhibition of human RPS6KB2 at 18.6 nM by HotSpot assay relative to control
Chain of Ribosomal protein S6 kinase beta-2 (Homo sapiens) (Q9UBS0 whole entry): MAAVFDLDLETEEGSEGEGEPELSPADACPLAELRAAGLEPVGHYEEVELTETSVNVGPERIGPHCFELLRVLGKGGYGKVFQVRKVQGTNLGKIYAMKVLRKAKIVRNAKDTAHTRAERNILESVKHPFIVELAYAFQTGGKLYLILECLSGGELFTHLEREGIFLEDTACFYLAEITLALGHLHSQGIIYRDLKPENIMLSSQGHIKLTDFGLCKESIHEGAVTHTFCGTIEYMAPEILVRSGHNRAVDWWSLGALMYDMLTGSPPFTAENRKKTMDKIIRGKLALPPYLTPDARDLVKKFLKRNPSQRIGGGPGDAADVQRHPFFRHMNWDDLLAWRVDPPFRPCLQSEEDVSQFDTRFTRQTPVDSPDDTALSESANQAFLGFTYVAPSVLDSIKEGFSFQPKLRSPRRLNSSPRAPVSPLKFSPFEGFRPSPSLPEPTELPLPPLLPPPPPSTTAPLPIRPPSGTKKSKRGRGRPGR

[8] = biological target: Serine/threonine-protein kinase 16 (Homo sapiens) (UniProt O75716); assay: Inhibition of human STK16 at 18.6 nM by HotSpot assay relative to control
[9] = biological target: Ribosomal protein S6 kinase alpha-3 (Homo sapiens) (UniProt P51812); assay: Inhibition of human RSK2 at 18.6 nM by HotSpot assay relative to control
Chain of Ribosomal protein S6 kinase alpha-3 (Homo sapiens) (P51812 whole entry): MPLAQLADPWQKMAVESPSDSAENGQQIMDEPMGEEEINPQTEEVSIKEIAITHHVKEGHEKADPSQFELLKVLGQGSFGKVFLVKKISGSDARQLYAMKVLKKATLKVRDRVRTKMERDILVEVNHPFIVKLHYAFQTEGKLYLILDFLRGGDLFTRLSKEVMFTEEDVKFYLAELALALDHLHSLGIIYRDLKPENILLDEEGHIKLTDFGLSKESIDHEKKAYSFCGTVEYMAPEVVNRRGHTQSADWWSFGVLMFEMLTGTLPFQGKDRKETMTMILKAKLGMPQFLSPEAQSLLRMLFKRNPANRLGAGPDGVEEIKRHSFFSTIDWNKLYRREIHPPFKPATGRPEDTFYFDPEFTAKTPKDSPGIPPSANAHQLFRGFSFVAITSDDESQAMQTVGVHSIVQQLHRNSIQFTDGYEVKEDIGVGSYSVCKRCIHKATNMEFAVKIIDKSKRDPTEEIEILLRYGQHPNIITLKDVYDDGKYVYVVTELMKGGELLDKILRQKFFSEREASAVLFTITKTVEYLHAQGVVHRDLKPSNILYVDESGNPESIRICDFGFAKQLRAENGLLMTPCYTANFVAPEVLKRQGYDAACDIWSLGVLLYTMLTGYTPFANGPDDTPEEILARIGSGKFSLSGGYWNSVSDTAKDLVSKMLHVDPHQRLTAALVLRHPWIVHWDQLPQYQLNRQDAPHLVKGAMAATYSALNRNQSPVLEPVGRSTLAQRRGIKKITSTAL

[10] = biological target: Mitogen-activated protein kinase kinase kinase 9 (Homo sapiens) (UniProt P80192); assay: Inhibition of human MAP3K9 at 1.82 nM by HotSpot assay relative to control
Chain of Mitogen-activated protein kinase kinase kinase 9 (Homo sapiens) (P80192 whole entry, looked up): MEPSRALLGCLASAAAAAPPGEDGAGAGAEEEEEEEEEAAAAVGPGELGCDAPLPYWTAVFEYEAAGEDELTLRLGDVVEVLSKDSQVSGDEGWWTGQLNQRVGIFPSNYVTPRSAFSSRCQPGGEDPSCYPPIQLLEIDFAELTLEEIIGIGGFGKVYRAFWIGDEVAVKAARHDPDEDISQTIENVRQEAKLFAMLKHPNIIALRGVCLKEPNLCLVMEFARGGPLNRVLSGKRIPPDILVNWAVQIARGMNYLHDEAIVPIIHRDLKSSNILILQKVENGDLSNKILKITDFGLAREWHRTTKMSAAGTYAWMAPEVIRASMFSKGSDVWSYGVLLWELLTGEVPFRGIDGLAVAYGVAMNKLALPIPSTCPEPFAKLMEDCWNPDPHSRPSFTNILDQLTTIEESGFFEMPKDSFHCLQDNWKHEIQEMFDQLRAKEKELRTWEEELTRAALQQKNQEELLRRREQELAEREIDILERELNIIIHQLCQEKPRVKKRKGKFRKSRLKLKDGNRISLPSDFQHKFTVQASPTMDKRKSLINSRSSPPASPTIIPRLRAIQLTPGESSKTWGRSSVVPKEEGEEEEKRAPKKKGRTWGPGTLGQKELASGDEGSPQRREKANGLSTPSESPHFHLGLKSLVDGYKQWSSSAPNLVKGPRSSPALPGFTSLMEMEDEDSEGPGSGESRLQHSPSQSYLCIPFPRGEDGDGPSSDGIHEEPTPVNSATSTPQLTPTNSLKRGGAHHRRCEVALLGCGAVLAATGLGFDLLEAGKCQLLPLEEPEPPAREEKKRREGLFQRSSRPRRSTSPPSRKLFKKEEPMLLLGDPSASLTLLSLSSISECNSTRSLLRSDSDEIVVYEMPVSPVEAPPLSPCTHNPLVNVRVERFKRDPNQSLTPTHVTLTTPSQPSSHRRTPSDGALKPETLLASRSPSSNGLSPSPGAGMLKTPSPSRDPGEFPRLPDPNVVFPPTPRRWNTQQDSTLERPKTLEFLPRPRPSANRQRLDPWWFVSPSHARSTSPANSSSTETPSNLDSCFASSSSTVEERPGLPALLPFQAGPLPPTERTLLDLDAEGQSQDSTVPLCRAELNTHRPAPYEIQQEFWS

[11] = biological target: Tyrosine-protein kinase BTK (Homo sapiens) (UniProt Q06187); assay: Inhibition of human BTK at 1.82 nM by HotSpot assay relative to control
Chain of Tyrosine-protein kinase BTK (Homo sapiens) (Q06187 whole entry): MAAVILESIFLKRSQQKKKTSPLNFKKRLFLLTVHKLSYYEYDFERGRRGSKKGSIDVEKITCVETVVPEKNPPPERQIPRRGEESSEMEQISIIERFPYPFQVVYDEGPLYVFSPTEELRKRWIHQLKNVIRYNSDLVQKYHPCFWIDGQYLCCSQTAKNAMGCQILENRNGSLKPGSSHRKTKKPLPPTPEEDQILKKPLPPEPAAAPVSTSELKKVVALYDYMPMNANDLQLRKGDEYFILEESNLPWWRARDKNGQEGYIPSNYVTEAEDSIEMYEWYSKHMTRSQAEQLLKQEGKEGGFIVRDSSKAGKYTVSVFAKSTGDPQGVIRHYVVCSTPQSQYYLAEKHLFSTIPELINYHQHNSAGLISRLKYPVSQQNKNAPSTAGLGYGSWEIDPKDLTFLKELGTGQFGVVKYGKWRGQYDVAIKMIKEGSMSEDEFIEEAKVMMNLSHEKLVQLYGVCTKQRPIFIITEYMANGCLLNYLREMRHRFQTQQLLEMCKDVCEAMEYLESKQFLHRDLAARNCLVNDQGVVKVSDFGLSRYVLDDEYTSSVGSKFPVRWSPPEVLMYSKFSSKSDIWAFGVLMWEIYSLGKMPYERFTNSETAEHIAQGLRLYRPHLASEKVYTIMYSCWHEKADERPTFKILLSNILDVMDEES

[12] = biological target: Mast/stem cell growth factor receptor Kit (Homo sapiens) (UniProt P10721); assay: Inhibition of human c-Kit at 1.82 nM by HotSpot assay relative to control
Chain of Mast/stem cell growth factor receptor Kit (Homo sapiens) (P10721 whole entry): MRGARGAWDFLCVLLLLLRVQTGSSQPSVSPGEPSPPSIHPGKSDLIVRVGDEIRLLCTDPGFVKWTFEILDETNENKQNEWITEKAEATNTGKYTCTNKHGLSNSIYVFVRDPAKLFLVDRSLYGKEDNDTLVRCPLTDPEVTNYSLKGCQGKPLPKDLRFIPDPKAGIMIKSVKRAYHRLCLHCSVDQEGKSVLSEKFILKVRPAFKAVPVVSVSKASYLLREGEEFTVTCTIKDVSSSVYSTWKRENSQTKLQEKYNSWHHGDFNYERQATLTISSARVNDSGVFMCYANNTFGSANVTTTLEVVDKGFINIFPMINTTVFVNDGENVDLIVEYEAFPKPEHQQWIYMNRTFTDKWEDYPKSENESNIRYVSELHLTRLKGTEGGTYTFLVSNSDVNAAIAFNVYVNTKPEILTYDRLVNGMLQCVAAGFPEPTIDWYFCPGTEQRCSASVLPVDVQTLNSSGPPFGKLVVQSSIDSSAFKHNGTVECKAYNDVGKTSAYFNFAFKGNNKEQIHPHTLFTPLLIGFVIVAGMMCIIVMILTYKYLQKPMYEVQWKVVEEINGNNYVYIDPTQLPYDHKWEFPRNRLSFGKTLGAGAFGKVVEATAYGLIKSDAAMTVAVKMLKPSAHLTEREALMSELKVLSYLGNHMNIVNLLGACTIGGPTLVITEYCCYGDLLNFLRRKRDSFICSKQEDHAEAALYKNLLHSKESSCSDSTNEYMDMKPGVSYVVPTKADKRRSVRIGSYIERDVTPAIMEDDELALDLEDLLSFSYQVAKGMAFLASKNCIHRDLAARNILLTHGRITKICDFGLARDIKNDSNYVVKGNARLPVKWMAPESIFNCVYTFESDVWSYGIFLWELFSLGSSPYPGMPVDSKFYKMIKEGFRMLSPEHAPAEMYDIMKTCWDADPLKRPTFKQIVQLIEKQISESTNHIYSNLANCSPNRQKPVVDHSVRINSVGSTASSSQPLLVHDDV

[13] = biological target: Serine/threonine-protein kinase 10 (Homo sapiens) (UniProt O94804); assay: Inhibition of human LOK at 1.82 nM by HotSpot assay relative to control
[14] = biological target: T1, Discoidin domain-containing receptor 2 (Homo sapiens) (UniProt Q16832); assay: Inhibition of human DDR2 at 1.82 nM by HotSpot assay relative to control
T1 sequence (whole entry): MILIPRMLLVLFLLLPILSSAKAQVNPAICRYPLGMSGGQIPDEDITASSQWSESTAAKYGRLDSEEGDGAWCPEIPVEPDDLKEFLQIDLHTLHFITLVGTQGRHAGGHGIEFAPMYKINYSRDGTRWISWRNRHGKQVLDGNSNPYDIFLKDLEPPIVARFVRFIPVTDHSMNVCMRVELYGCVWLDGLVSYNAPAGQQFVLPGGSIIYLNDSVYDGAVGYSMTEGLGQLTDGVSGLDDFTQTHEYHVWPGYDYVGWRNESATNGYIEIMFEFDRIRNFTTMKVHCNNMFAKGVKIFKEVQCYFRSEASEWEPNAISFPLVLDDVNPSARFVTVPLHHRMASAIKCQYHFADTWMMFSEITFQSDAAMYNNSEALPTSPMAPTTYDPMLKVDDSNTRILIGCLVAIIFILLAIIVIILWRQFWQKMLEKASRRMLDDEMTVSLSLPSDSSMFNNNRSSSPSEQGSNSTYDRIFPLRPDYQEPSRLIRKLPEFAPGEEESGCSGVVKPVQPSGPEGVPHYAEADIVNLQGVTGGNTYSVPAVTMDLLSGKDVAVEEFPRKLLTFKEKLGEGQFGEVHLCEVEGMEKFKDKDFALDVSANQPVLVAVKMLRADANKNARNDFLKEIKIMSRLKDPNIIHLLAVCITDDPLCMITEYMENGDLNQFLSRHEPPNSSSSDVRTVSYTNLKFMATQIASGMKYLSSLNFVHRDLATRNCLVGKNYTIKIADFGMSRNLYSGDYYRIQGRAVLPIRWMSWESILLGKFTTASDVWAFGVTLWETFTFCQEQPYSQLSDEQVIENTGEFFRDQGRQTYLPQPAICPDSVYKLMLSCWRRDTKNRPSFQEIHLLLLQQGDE

[15] = biological target: Myosin light chain kinase, smooth muscle (Homo sapiens) (UniProt Q15746); assay: Inhibition of human MYLK at 1.82 nM by HotSpot assay relative to control
[16] = biological target: T2, Dual specificity tyrosine-phosphorylation-regulated kinase 2 (Homo sapiens) (UniProt Q92630); assay: Inhibition of human DYRK2 at 1.82 nM by HotSpot assay relative to control
T2 sequence (whole entry): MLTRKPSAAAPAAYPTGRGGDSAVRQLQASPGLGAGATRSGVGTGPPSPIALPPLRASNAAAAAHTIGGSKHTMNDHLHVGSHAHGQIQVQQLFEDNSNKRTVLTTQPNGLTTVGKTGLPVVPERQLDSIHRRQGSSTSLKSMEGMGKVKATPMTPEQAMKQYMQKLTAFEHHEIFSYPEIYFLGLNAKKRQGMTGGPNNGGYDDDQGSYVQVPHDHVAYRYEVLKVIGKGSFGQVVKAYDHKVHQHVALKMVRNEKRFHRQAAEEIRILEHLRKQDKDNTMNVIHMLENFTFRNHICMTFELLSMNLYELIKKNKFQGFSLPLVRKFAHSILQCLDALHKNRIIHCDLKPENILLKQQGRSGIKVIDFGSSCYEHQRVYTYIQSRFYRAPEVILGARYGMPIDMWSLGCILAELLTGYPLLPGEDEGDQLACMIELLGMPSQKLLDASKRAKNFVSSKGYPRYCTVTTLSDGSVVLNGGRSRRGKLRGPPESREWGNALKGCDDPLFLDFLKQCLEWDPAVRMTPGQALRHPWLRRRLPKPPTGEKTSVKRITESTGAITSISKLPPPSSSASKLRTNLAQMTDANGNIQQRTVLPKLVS

inhibition [1] [%]	inhibition [2] [%]	inhibition [3] [%]	inhibition [4] [%]	inhibition [5] [%]	inhibition [6] [%]	inhibition [7] [%]	inhibition [8] [%]	inhibition [9] [%]	inhibition [10] [%]	inhibition [11] [%]	inhibition [12] [%]	inhibition [13] [%]	inhibition [14] [%]	inhibition [15] [%]	inhibition [16] [%]	SMILES
3.94	0.64	0.25	28	-0.99	-1.6	0.94	-0.38	1.82								C[C@]1(O)C[C@@H](c2nc(-c3ccc4ccc(-c5ccccc5)nc4c3)c3c(N)nccn32)C1
									2.63	4.42	2.48	12	-7.91	2.24	0	C[C@@]1(C(=O)Nc2ccc(F)nc2)CCCN1c1nc(Nc2cc(C3CC3)n[nH]2)c2cccn2n1
